# Results: patent publication US11357229B2, “Composition, uses and preparation process thereof, as well as method to ensure high corn crop yield” (priority 2011, dated 2022)
# How the values were obtained:
# Assay type in all cases: in vivo, Zea mays
# corn [1] = test: Ethephon applied to corn at stage V6, Nova Mutum; chlorantraniliprole and cyproconazole+azoxystrobin added in all treatments; conditions: for Increased Yield: 100,000 plants/ha vs control at normal density
# Description: Example 2—Effect of Growth Regulator Ethephon Applied to Corn at the Stage of Development V6
# (§1) In the moment of the application, the insecticide chlorantraniliprole (25 g ha^−1 a.i.) and the fungicide cyproconazole+azoxystrobin (24+60 g ha^−1 a.i.) were added in all treatments, including the control.
# corn [2] = test: Ethephon applied to corn at stage V8, Nova Mutum; methomyl and pyraclostrobin+epoxyconazole added in all treatments; conditions: for Increased Yield: 100,000 plants/ha vs control at normal density
# Description: Example 1—Effect of Growth Regulator Ethephon Applied to Corn at the Stage of Development V8
# (§2) In the moment of the application, the insecticide methomyl (215 g ha^−1 a.i.) and the fungicide pyraclostrobin+epoxyconazole (99.75+37.5 g ha^−1 a.i.) were added in all treatments, including the control.
# corn [3] = test: Ethephon+cyclanilide applied to corn at stage V8, Nova Mutum; methomyl and pyraclostrobin+epoxyconazole added in all treatments; conditions: estimation at 100,000 plants per hectare vs control at normal density of sowing (Table 6)
# Description: Example 3—Effect of Growth Regulator Ethephon+Cyclanilide Applied to Corn at the Stage of Development V8
# as §2
# corn plants = test: Growth regulator applied in the late vegetative stage of corn (V6-V9), inventors' finding; conditions: application in the late vegetative stage (V6-V9)
# Source text: The solution to such problems related to corn crops would be to limit plant growth through the use of plant growth regulators, commonly used in other crops (cotton, wheat), but without any tradition in corn crop in order to provide the cultivation of high densities of corn plants per hectare with a view to achieving considerable increase in the crop's yield potential, as well as to improving pest and disease control in the crop.
# corn [4] = test: BF 428-5 applied to corn at stage V6, Nova Mutum; chlorantraniliprole and cyproconazole+azoxystrobin added in all treatments; conditions: V6; 30 DAA; all treatments (Table 11)
# Description: Example 6—Effect of Growth Regulator BF 428-5 Applied to Corn at the Stage of Development V6
# as §1
compound,measurement,setting,value
"O=P(O)(O)CCCl [Ethephon, 2-chloroethylphosphonic acid]",effects on the corn plant,corn [1]; V6,"reduction in shoot length, increased formation of adventitious roots, strengthening of the stem, strengthening of the root system, increased ventilation in the culture, proper development of male and female inflorescences"
same,effect on length and diameter of ears of corn,corn [1]; V6 (Table 3),reduces
same,yield reduction / increase,corn [1]; V6 (Table 3),"yield reduction was significant for some treatments, and the yield increase was also significant for some treatments"
same,shoot length,"corn [1]; V6, 30 DAA, all treatments with application of ethephon (Table 3)",less than or equal to 152.5 cm
same,Ear Diameter,"corn [1]; V6, 216 g ha^−1 a.i.",37.9 mm
same,Ear Length,"corn [1]; V6, 216 g ha^−1 a.i.",21.4 cm
same,Yield,"corn [1]; V6, 216 g ha^−1 a.i.",1906.7 kg/ha
same,Height (shoot length),"corn [1]; V6, 216 g ha^−1 a.i., 30 DAA",144.3 cm
same,"Population of corn plants 60,000 plants/ha, kg/corn plant","corn [1]; V6, 216 g ha^−1 a.i.",0.032 kg/corn plant
same,"Population of corn plants 100,000 plants/ha, kg/corn plant","corn [1]; V6, 216 g ha^−1 a.i.",0.032 kg/corn plant
same,"Yield estimates 100,000 plants/ha","corn [1]; V6, 216 g ha^−1 a.i.",3177.8 kg/ha
same,Increased Yield,"corn [1]; V6, 216 g ha^−1 a.i.",10.1%
same,Ear Diameter,"corn [1]; V6, 360 g ha^−1 a.i.",36.7 mm
same,Ear Length,"corn [1]; V6, 360 g ha^−1 a.i.",21.1 cm
same,Yield,"corn [1]; V6, 360 g ha^−1 a.i.",3553.3 kg/ha
same,Height (shoot length),"corn [1]; V6, 360 g ha^−1 a.i., 30 DAA",148.5 cm
same,"Population of corn plants 60,000 plants/ha, kg/corn plant","corn [1]; V6, 360 g ha^−1 a.i.",0.059 kg/corn plant
same,"Population of corn plants 100,000 plants/ha, kg/corn plant","corn [1]; V6, 360 g ha^−1 a.i.",0.059 kg/corn plant
same,"Yield estimates 100,000 plants/ha","corn [1]; V6, 360 g ha^−1 a.i.",5922.2 kg/ha
same,Increased Yield,"corn [1]; V6, 360 g ha^−1 a.i.",105.2%
same,Ear Diameter,"corn [1]; V6, 576 g ha^−1 a.i.",37.7 mm
same,Ear Length,"corn [1]; V6, 576 g ha^−1 a.i.",23.3 cm
same,Yield,"corn [1]; V6, 576 g ha^−1 a.i.",3540.0 kg/ha
same,Height (shoot length),"corn [1]; V6, 576 g ha^−1 a.i., 30 DAA",144.9 cm
same,"Population of corn plants 60,000 plants/ha, kg/corn plant","corn [1]; V6, 576 g ha^−1 a.i.",0.059 kg/corn plant
same,"Population of corn plants 100,000 plants/ha, kg/corn plant","corn [1]; V6, 576 g ha^−1 a.i.",0.059 kg/corn plant
same,"Yield estimates 100,000 plants/ha","corn [1]; V6, 576 g ha^−1 a.i.",5900.0 kg/ha
same,Increased Yield,"corn [1]; V6, 576 g ha^−1 a.i.",104.4%
same,yield increases,"corn [1]; V6, estimation at 100,000 plants per hectare vs control at normal density of sowing (Table 4)",more than 10.1%
same,effects on the corn plant,corn [2]; V8,"reduction in shoot length, increased formation of adventitious roots, strengthening of the stem, strengthening of the root system, increased ventilation in the culture, proper development of male and female inflorescences"
same,effect on length and diameter of ears of corn,corn [2]; V8 (Table 1),reduces
same,yield reduction,corn [2]; V8 (Table 1),not significant
same,shoot length,"corn [2]; V8, 30 DAA, all treatments with application of ethephon (Table 1)",less than or equal to 159.1 cm
same,Ear Diameter,"corn [2]; V8, 216 g ha^−1 a.i.",50.4 mm
same,Ear Length,"corn [2]; V8, 216 g ha^−1 a.i.",25.8 cm
same,Yield,"corn [2]; V8, 216 g ha^−1 a.i.",4335.6 kg/ha
same,Height (shoot length),"corn [2]; V8, 216 g ha^−1 a.i., 30 DAA",157.3 cm
same,"Population of corn plants 60,000 plants/ha, kg/corn plant","corn [2]; V8, 216 g ha^−1 a.i.",0.072 kg/corn plant
same,"Population of corn plants 100,000 plants/ha, kg/corn plant","corn [2]; V8, 216 g ha^−1 a.i.",0.072 kg/corn plant
same,"Yield estimates 100,000 plants/ha","corn [2]; V8, 216 g ha^−1 a.i.",7226.0 kg/ha
same,Increased Yield,"corn [2]; V8, 216 g ha^−1 a.i.",42.4%
same,Ear Diameter,"corn [2]; V8, 360 g ha^−1 a.i.",51.6 mm
same,Ear Length,"corn [2]; V8, 360 g ha^−1 a.i.",25.6 cm
same,Yield,"corn [2]; V8, 360 g ha^−1 a.i.",4253.3 kg/ha
same,Height (shoot length),"corn [2]; V8, 360 g ha^−1 a.i., 30 DAA",153.9 cm
same,"Population of corn plants 60,000 plants/ha, kg/corn plant","corn [2]; V8, 360 g ha^−1 a.i.",0.071 kg/corn plant
same,"Population of corn plants 100,000 plants/ha, kg/corn plant","corn [2]; V8, 360 g ha^−1 a.i.",0.071 kg/corn plant
same,"Yield estimates 100,000 plants/ha","corn [2]; V8, 360 g ha^−1 a.i.",7088.8 kg/ha
same,Increased Yield,"corn [2]; V8, 360 g ha^−1 a.i.",39.7%
same,Ear Diameter,"corn [2]; V8, 576 g ha^−1 a.i.",50.7 mm
same,Ear Length,"corn [2]; V8, 576 g ha^−1 a.i.",25.4 cm
same,Yield,"corn [2]; V8, 576 g ha^−1 a.i.",4680.0 kg/ha
same,Height (shoot length),"corn [2]; V8, 576 g ha^−1 a.i., 30 DAA",152.2 cm
same,"Population of corn plants 60,000 plants/ha, kg/corn plant","corn [2]; V8, 576 g ha^−1 a.i.",0.078 kg/corn plant
same,"Population of corn plants 100,000 plants/ha, kg/corn plant","corn [2]; V8, 576 g ha^−1 a.i.",0.078 kg/corn plant
same,"Yield estimates 100,000 plants/ha","corn [2]; V8, 576 g ha^−1 a.i.",7800.0 kg/ha
same,Increased Yield,"corn [2]; V8, 576 g ha^−1 a.i.",53.7%
same,yield increases,"corn [2]; V8, estimation at 100,000 plants per hectare vs control at normal density of sowing (Table 2)",more than 39%
same,yield increases,corn [3],more than 44.4%
same,root system,corn plants,stronger root system
same,shoot length,corn [4],less than or equal to 206.0 cm
